{"source": "ChEMBL document CHEMBL3856266", "about": "“Melodinine V, an antitumor bisindole alkaloid with selective cytotoxicity from Melodinus henryi” (Bioorg Med Chem Lett, 2016)", "key": {"HT-29 [1]": {"test_system": "HT-29", "assay": "Induction of apoptosis in human HT-29 cells assessed as increase in histone associated DNA fragmentation after 48 hrs by ELISA", "format": "functional, cell-based"}, "HT-29 [2]": {"test_system": "HT-29", "assay": "(§1) Antiproliferative activity against human HT-29 cells after 48 hrs by [methyl-3H]-thymidine incorporation assay", "format": "functional, cell-based"}, "[3]": {"assay": "as §1", "format": "functional, cell-based", "details": "HT-29, 48 h"}, "[4]": {"assay": "Cell cycle arrest in human HT-29 cells assessed as accumulation in G1 phase at 7.4 uM after 24 hrs by propidium iodide staining-based flow cytometry", "format": "functional"}, "[5]": {"assay": "Cytotoxicity against human PANC1 cells assessed as reduction in cell viability after 48 hrs by MTT assay", "format": "functional, cell-based", "details": "PANC-1, 48 h"}, "[6]": {"assay": "Cytotoxicity against human MCF7 cells assessed as reduction in cell viability after 48 hrs by MTT assay", "format": "functional, cell-based", "details": "MCF7, 48 h"}, "[7]": {"assay": "Cytotoxicity against human HS27 cells assessed as reduction in cell viability up to 100 uM after 48 hrs by MTT assay", "format": "toxicity, cell-based", "details": "hs27, 48 h"}, "[8]": {"assay": "Cell cycle arrest in human HT-29 cells assessed as accumulation in G1 phase at 9.8 uM after 24 hrs by propidium iodide staining-based flow cytometry", "format": "functional"}, "[9]": {"assay": "Cytotoxicity against human HT-29 cells assessed as reduction in cell viability after 48 hrs by MTT assay", "format": "functional, cell-based", "details": "HT-29, 48 h"}}, "note": "The source made the active and inactive calls. The calls are words filed in the database; no cut-off is given here."}
{"smiles": "CC[C@]12CCCN3CCc4c(n(c5ccccc45)[C@@H](c4ccc(O)c5c4N=C4CC[C@]6(CC)CCCN7CC[C@@]45[C@@H]76)C1)[C@@H]32", "values": [{"measurement": "Activity", "setting": "HT-29 [1]", "result": "Dose-dependent effect"}, {"measurement": "inhibition", "setting": "HT-29 [2]", "result": "Dose-dependent effect"}, {"measurement": "IC50", "setting": "[3]", "result": 2.3, "unit": "µM"}, {"measurement": "Activity", "setting": "[4]", "result": "Active"}, {"measurement": "IC50", "setting": "[5]", "result": 28.1, "unit": "µM"}, {"measurement": "IC50", "setting": "[6]", "result": 54.5, "unit": "µM"}, {"measurement": "Activity", "setting": "[7]", "result": "Non-Toxic"}, {"measurement": "Activity", "setting": "[8]", "result": "Active"}, {"measurement": "IC50", "setting": "[9]", "result": 4.9, "unit": "µM"}]}
